A short description of series [1]: DSC melting enthalpy and degree of crystallinity of FFA in cellulose mixtures. The class given is physicochemical. The note with it: degree of crystallinity of FFA from DSC melting enthalpy, about 10 wt % FFA, n = 3. How it is done: Thermal analysis was performed with TA instrument (Model Q-2000) on both cellulose-drug mixtures and pure substances. Samples were placed inside hermetically sealed aluminium crucibles with punctured lids, in order to avoid overpressure caused by water evaporation. An empty pan was used as a reference. The analysis was conducted in the temperature range from −40° C. to 150° C. with a heating rate of 10° C. min^−1. N2 gas, at a flow of 50 mL min^−1, was applied during analysis. Initially the samples were cooled from room temperature to −40° C., then heated to 150° C. and finally cooled to 25° C. again. All of the samples were stored at ambient conditions for 24 hours prior to DSC measurements. For the heated cellulose-FFA mixtures the heating conditions were 120° C. for 2 hours.
The measurements were performed in triplicate, and the estimated amount of drug in the mixtures was 10 wt %.

Series [2] can be described thus: Degree of drug crystallinity from weight normalized melting enthalpies (TGA heat flow). Type of series: physicochemical. How it is done:
TGA was conducted on a Mettler TG50 apparatus (10 K min^−1; 35° C. to 20° C. above the melting point of the drug) on 10-20 mg samples in aluminium crucibles under a nitrogen atmosphere (60 mL min^−1). Both normal and heated 10% mixtures were analysed and compared to the pure crystalline substance of corresponding drug content, i.e. 1-2 mg. The temperature in the furnace was continuously monitored, and the heat flow curves were collected both for heating and cooling phase to record melting or re-crystallization events.
The weight normalized enthalpies of melting observed in cellulose-drug mixtures were calculated using the STARe Excellence software (Mettler Toledo) and compared to the weight normalized enthalpy for the pure crystalline drug, to give a rough estimate of the degree of the drug crystallinity (“Crl”) as follows.
[formula] where ΔHmelt is weight normalised melting enthalpy of the drug in a specific cellulose-drug blend [in Joules/g] and ΔHdrug is the melting enthalpy of a pure crystalline drug [in Joules/g]. X-Ray Diffraction (XRD)

As to `O=C(O)c1ccccc1Nc1cccc(C(F)(F)F)c1` [FFA, flufenamic acid], the CrlFFA.% in series [1] worked out at 100%.
`CC(=O)[C@H]1CC[C@H]2[C@@H]3CCC4=CC(=O)CC[C@]4(C)[C@H]3CC[C@]12C` [PRO, progesterone]: the “CrlPRO (%)” value in series [2] (melting event) is reported as 100%.
On to `COc1ccc2cc([C@H](C)C(=O)O)ccc2c1` [NAP, naproxen], for which the “CrlNAP (%)” value in series [2] (melting event) came out at 100%; in series [2] (recrystallisation event of pure NAP (NAP recryst.)), 76%.

The values are drawn from US11278563B2, “Rapid release pharmaceutical formulations containing algal cellulose” (priority 2016, dated 2022).
